Results reported in patent publication US20200163947A1 (Nortic Holdings Inc., priority 2018, published 2020).
In brackets after ≈: the same amount, converted by molar mass. Like-named read-outs stand apart in the source and are kept apart here.

Columns and labels:
[1] = Single dose parallel plasma and CSF pharmacokinetics and relative bioavailability study in rats; assay type: in vivo; conditions: both sexes, Wistar, rat, plasma
Method: The pharmacokinetics study was performed in 6 healthy rats (3 males and 3 females). […] Blood samples were collected at 15 minutes, 30 minutes, and at 1, 2, 4, 6, 8, 12 and 24 hours post-dose. CSF samples were collected at 1, 2, 4, and 24 hours post-dose. All samples were analyzed using a validated analytical LC-MS method.

[2] = cited from earlier work
[3] = 25° C.; cited from earlier work

bioavailability ([1]; 0.73 mg, continuous intravenous infusion, read-out: absolute bioavailability): 100% | bioavailability ([1]; rats, 5.5 mg oral solution by oral gavage, Mean, read-out: Absolute Bioavailability (F %)): 22%
SMILES: COCCOC(=O)C1=C(C)NC(C)=C(C(=O)OC(C)C)C1c1cccc([N+](=O)[O-])c1 (stereo not drawn) [nimodipine, isopropyl 2-methoxyethyl 1,4-dihydro-2,6-dimethyl-4-(m-nitrophenyl)-3,5-pyridinedicarboxylate]
half-life equivalent to earlier elimination rates ([2]; man): 1 to 2 h | concentration in the cerebrospinal fluid ([2]; nimodipine-treated subarachnoid hemorrhage (SAH) patients): ≤ 12.5 ng/mL | Cmax in patients with hepatic cirrhosis versus normal ([2]; oral administration): approximately double | solubility in water [3]: 2.5 µg/mL (≈ 5.97 µM)
